How the values were obtained:
[1] = Heat stability of iosimenol in crystallization solution (colour change, impurities); format: physicochemical; settings: between 80-110° C.
Excerpt: Although contrast media are relatively stable compounds, usually after a long-term exposure to heat, certain degradation may occur. The most vulnerable are amide groups and covalently bound iodine. In case of iosimenol, the acidic hydrogens on aliphatic carbon of malonyl group may cause cleavage of the bridge at higher temperature and can lead to form monomeric impurities. These all mentioned degradations are more intensive under strong acidic or strong basic conditions. Using our experience in formulation of iosimenol, we used trometamol as a buffer to control pH between 6-7 from the viewpoint of influencing of color. Ideal conditions for iosimenol crystallization are when the crystallization is performed at shortest process time at lowest possible temperature under suitable and controlled pH between 6-7 by buffer from the viewpoint of influencing of color.
Therefore, ideal conditions for crystallization are temperatures between 80-110° C., pH 6-7 and as short as possible time for crystallization.

[2] = Solubility of iosimenol in organic solvents (crystallization attempts); format: physicochemical
Excerpt: The present inventors applied crystallization methods described in literature, but this approach always failed, independently on using crude or purified iosimenol. If any solid was obtained, we usually obtained solid of gummy consistency and we never observed any purity increase.

- solubility in solvents ([2]; alcohols, ethers and alkoxyalcohols): practically insoluble
- solubility in aprotic solvents ([2]; aprotic solvents like dimethylformamide): extremely high solubility
Structure (SMILES): NC(=O)c1c(I)c(C(=O)NCC(O)CO)c(I)c(N(CC(O)CO)C(=O)CC(=O)N(CC(O)CO)c2c(I)c(C(N)=O)c(I)c(C(=O)NCC(O)CO)c2I)c1I (stereo not drawn) [iosimenol, N,N′-bis[3-carbamoyl-5-(2,3-dihydroxypropyl-carbamoyl)-2,4,6-triiodophenyl]-N,N′-bis(2,3-dihydroxypropyl)-malonamide]
- degradation on heating (impurities) [1]: no new impurities or increased level of known impurities are observed
